# Experimental data from US20190365675A1, “COMPOSITIONS FOR THE PREVENTION AND/OR TREATMENT OF ALCOHOL USE DISORDERS” (SERVICIO ANDALUZ DE SALUD, priority 2016, published 2019).
# What was measured:
# Assay type in all cases: in vivo, Wistar rats
# corticosterone = test: Plasma corticosterone levels (R.I.A.)
# Protocol: The animals were treated with intragastric (i.g.) ethanol 3 times a day using an i.g. cannula (16G needle, Fisher Scientific, Waltham, Mass., USA), following a protocol based on a slightly modified standard 4-day alcohol intoxication pattern (Bernier et al., 2002a, b) (FIG. 1A). The ethanol doses were administered every 8 h for a total time of 4 days. The rats treated with ethanol received an initial loading dose of 5 g/kg of ethanol in a 30% solution (w/v) and then a maximum maintenance dose of 3 g/kg, which were determined based on blood ethanol levels (BEL). This repeated standard alcohol intoxication paradigm kept BEL intoxication relatively constant in a range of sedation/ataxia (190 to 430 mg/dl, Table 3), according to the 6-point alcohol intoxication behavior scale (Majchrowicz, 1975). The mean dose of ethanol/rat/day (days 1-4) was 7.06 g/kg, similar to other studies (Obernier et al., 2002a, b). […]
# Corticosterone and LPS were measured in plasma by means of the use of radioimmunoassay (R.I.A.) kits available on the market (Coat-A-Count®, Siemens, La., USA) or colorimetric enzymatic reaction (HyCult Biotech, Uden, Netherlands), respectively.
# MyD88 = MyD88 protein expression in frontal cortex after ethanol intoxication; settings: 2-4 h after last ethanol, OEA pre-treatment
# Protocol: (§1) The animals were treated with intragastric (i.g.) ethanol 3 times a day using an i.g. cannula (16G needle, Fisher Scientific, Waltham, Mass., USA), following a protocol based on a slightly modified standard 4-day alcohol intoxication pattern (Bernier et al., 2002a, b) (FIG. 1A). The ethanol doses were administered every 8 h for a total time of 4 days. The rats treated with ethanol received an initial loading dose of 5 g/kg of ethanol in a 30% solution (w/v) and then a maximum maintenance dose of 3 g/kg, which were determined based on blood ethanol levels (BEL). This repeated standard alcohol intoxication paradigm kept BEL intoxication relatively constant in a range of sedation/ataxia (190 to 430 mg/dl, Table 3), according to the 6-point alcohol intoxication behavior scale (Majchrowicz, 1975). The mean dose of ethanol/rat/day (days 1-4) was 7.06 g/kg, similar to other studies (Obernier et al., 2002a, b). OEA (5 mg/kg, i.p., except initial dose of 10 mg/kg i.p.; synthesized as described in Giuffrida et al., 2000) was dissolved in the vehicle (5% Tween-80 in saline solution) and injected 10 minutes before each of the administrations of ethanol by an intragastric gavage. […] The autoradiograph was quantified by densitometry (NIH ImageJ® software, National Biosciences, Lincoln, Nebr. USA) and expressed as optical density (OD). […]
# caspase-8 = test: Caspase-8 mRNA in frontal cortex after ethanol intoxication; settings: OEA pre-treatment
# Protocol: as §1, with “quantitative changes in mRNA levels were estimated” for “autoradiograph was quantified”, “means of RT-PCR, carried out in the presence of the SYBR green primer using a 20-L reaction in a Rotor-Gene (Corbett Research®, Mortlake, NSW, Australia).” for “densitometry (NIH ImageJ® software, National Biosciences, Lincoln, Nebr. USA) and expressed as optical density (OD).”
# COX-2 = COX-2 mRNA in frontal cortex after ethanol intoxication; settings: ethanol-treated animals (not in vehicle-treated animals), OEA pre-treatment
# Protocol: as §1, with “quantitative changes in mRNA levels were estimated” for “autoradiograph was quantified”, “means of RT-PCR, carried out in the presence of the SYBR green primer using a 20-L reaction in a Rotor-Gene (Corbett Research®, Mortlake, NSW, Australia).” for “densitometry (NIH ImageJ® software, National Biosciences, Lincoln, Nebr. USA) and expressed as optical density (OD).”
smiles,measurement,setting,value
"CCCCCCCC/C=C\CCCCCCCC(=O)NCCO [OEA, oleoylethanolamide]",Plasma corticosterone levels in the control animals,corticosterone; control animals (no ethanol),did not modify
same,Ethanol-induced increase in plasma corticosterone levels,"corticosterone; plasma, 2-4 h after last ethanol, OEA pre-treatment",prevented entirely
same,Ethanol-induced increase in expression of MyD88 protein,MyD88,inhibited
same,Ethanol-induced overexpression of caspase-8 mRNA,caspase-8,reversed
same,Levels of COX-2 mRNA with ethanol,COX-2,reduced
